Drawing on US20260008775A1, “AZOLE MODULATORS OF CHOLESTEROL BIOSYNTHESIS AND THEIR USE FOR PROMOTING REMYELINATION” (GENENTECH, INC., priority 2022, published 2026), this text covers EC50 and Ki for 13 compounds.

pEC50, pKi: −log10 of the molar value. Where two headings read alike, the source gives them in different places.

One test has as its system EpiSC-derived OPCs. As to the kind of experiment: In vitro phenotypic screening of OPCs, MBP high-content imaging (percentage of oligodendrocytes). In kind it is cell-based, mouse. The following applies: 3 days, MBP stain, dose-response 0.5 nM to 1000 nM, read-out: OPC EC50. In a few lines:
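EC50 was fitted by Hill equation to the MBP-positive oligodendrocyte percentage from imaging of fixed, MBP- and DAPI-stained cells. Treatment lasted 3 days at 37 °C, final doses 0.5–1000 nM over 8 points, in growth factor-free N2B27. Cells were EpiSC-derived OPCs, tested in at least two independent platings.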

Test [1] concerns the target human emopamil binding protein and human 7-dehydrocholesterol reductase (hEBP-DHCR7) (Homo sapiens (Human), UniProt Q15125). As to the kind of experiment: hEBP-DHCR7 radioligand binding assay (filter binding, membranes of co-expressing HEK293 cells). The following applies: competition with [3H] radioligand, 8 doses 0.06 to 5000 nM, Ki calculated from IC50. The procedure, abridged:
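Compound, either single dose 1 μM or eight 5-fold dilutions from 0.06 to 5000 nM, competed with a [3H]-labelled ligand added at 25 nM for binding to co-expressing HEK293 membranes. IC50 came from nonlinear regression, with full block and DMSO as controls, then Cheng–Prusoff conversion to Ki.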

The subject of test [2] is zymostenol accumulation (EBP) in EpiSC-derived OPCs. As to the kind of experiment: GC/MS-based sterol profiling, zymostenol accumulation in EpiSC-derived OPCs. In kind it is cell-based, mouse. The following applies: EpiSC-derived OPCs, 24 hr, 8 doses from 0.15 nM to 333 nM, read-out: Mouse Zymostenol GCMS EC50. The procedure, abridged:
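Zymostenol level is expressed relative to that after 24 h with 100 nM positive-control reference, measured by full-scan GC/MS (m/z 458) with cholesterol-d7 internal standard after BSTFA derivatisation. Cells were EpiSC-derived OPCs, 100,000/well in N2B27 without growth factors, treated 24 h, from two or more independent platings.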

human emopamil binding protein and human 7-dehydrocholesterol reductase (hEBP-DHCR7), sequence (Q15125 whole entry): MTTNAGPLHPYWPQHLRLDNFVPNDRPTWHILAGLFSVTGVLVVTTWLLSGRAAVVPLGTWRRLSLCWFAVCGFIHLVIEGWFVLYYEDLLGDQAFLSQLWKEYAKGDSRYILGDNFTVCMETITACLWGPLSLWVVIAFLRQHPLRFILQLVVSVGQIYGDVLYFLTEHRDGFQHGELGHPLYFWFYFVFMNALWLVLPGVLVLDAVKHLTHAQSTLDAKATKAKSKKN

The pEC50 is the negative decadic logarithm of the EC50, by convention in mol/L. As usually defined, the pKi is the negative decadic logarithm of the Ki, by convention in mol/L. Turning to `CC(C)n1nc(-c2ccc(OC(F)F)cc2)cc1[C@H]1[C@@H]2C[C@H](N3CCCOCC3)C[C@@H]21` (single isomer, unassigned) [Compound 201*], the pEC50 in the test on EpiSC-derived OPCs (Mus musculus, 72 h) is 7.61; in test [2] (Mus musculus, 24 h), 8.08. Besides, the negative logarithm of the Ki (pKi) in test [1] is 7.96.
As to `CC(C)n1nc(-c2cccc(C#N)c2)cc1[C@H]1[C@@H]2C[C@@H](N3CCCOCC3)C[C@@H]21` [Compound 192*, 3-(5-((1R,3s,5S,6r)-3-(1,4-oxazepan-4-yl)bicyclo[3.1.0]hexan-6-yl)-1-isopropyl-1H-pyrazol-3-yl)benzonitrile], the pEC50 was 7.21 in the test with EpiSC-derived OPCs (Mus musculus, 72 h) and 7.64 in test [2] (Mus musculus, 24 h). The pKi in test [1] was 7.90.
On the same counts, the results for `CC(C)n1nc(-c2ccnc(C(F)(F)F)n2)cc1[C@H]1[C@@H]2C[C@H](N3CCOC[C@H]3C)C[C@@H]21` [Compound 103, (R)-4-((1R,3r,5S,6S)-6-(1-Isopropyl-3-(2-(trifluoromethyl)pyrimidin-4-yl)-1H-pyrazol-5-yl)bicyclo[3.1.0]hexan-3-yl)-3-methylmorpholine] are 7.03, 8.03 and 7.44.
On the same counts, the results for `CC(C)n1nc(-c2cccc(C(F)(F)F)n2)nc1[C@H]1[C@@H]2C[C@H](N3CCOC[C@H]3C)C[C@@H]21` [Compound 73, (R)-4-((1R,3r,5S,6R)-6-(1-isopropyl-3-(6-(trifluoromethyl)pyridin-2-yl)-1H-1,2,4-triazol-5-yl)bicyclo[3.1.0]hexan-3-yl)-3-methylmorpholine] are 8.08, 8.40 and 6.96.
On the same counts, the results for `CC(C)n1nc(-c2cccc(C(F)(F)F)n2)cc1[C@H]1[C@@H]2C[C@@H](N3CCCOCC3)C[C@@H]21` [Compound 49, 4-((1R,3s,5S,6r)-6-(1-Isopropyl-3-(6-(trifluoromethyl)pyridin-2-yl)-1H-pyrazol-5-yl)bicyclo[3.1.0]hexan-3-yl)-1,4-oxazepane] are 7.12, 7.38 and 7.28.
For the compound `CC(C)n1nc(-c2cncc(C(F)(F)F)c2)cc1[C@H]1[C@@H]2C[C@@H](N3C[C@@H]4C[C@H]3CO4)C[C@@H]21` (single isomer, unassigned) [36*], the negative-log EC50 (pEC50) with EpiSC-derived OPCs (Mus musculus, 72 h) is 6.84; in test [2] (Mus musculus, 24 h), 6.64. Besides, in test [1], the pKi was 6.68.
In the same order, the values of `CC[C@H]1CN([C@@H]2CC[C@H](c3nc(-c4cnc(C(F)(F)F)nc4)nn3C(C)C)C2)CCO1` (single isomer, unassigned) [Compound 110*] are 7.86, 8.61 and 7.83.
In the same order, the values of `CC(C)n1nc(-c2cncc(C(F)(F)F)c2)cc1[C@@H]1CC[C@H](N2CCOCC2)C1` (single isomer, unassigned) [61*] are 6.99, 7.66 and 7.16.
In the same order, the values of `CC(C)n1nc(-c2cncc(C(F)(F)F)c2)cc1[C@H]1CC[C@@H](N2CCOCC2)CC1` [1*, 4-((1s,4s)-4-(1-isopropyl-3-(5-(trifluoromethyl)pyridin-3-yl)-1H-pyrazol-5-yl)cyclohexyl)morpholine] are 7.09, 7.68 and 7.41.
On to `CC(C)n1nc(-c2cncc(OC(F)F)c2)nc1[C@H]1[C@@H]2C[C@@H](N3CCCOCC3)C[C@@H]21` [Compound 68, 4-((1R,3s,5S,6r)-6-(3-(5-(Difluoromethoxy)pyridin-3-yl)-1-isopropyl-1H-1,2,4-triazol-5-yl)bicyclo[3.1.0]hexan-3-yl)-1,4-oxazepane], for which the negative logarithm of the EC50 (pEC50) is 6.38 in the test on EpiSC-derived OPCs (Mus musculus, 72 h) and 6.84 in test [2] (Mus musculus, 24 h). Also, in test [1], the pKi was 6.92.
`CC(C)n1nc(-c2cccc(C(F)(F)F)c2)nc1[C@H]1CC[C@H](N2CCOCC2)C1` (single isomer, unassigned) [23*]: the pEC50 is 6.88 in the test with EpiSC-derived OPCs and 7.88 in test [2]. For the same compound, the pKi in test [1] is 7.81.
With `CC(C)n1nc(-c2cccc(C(F)(F)F)c2)nc1[C@H]1CC[C@H](N2CCOCC2)C1` (single isomer, unassigned) [24*], the negative logarithm of the EC50 (pEC50) in the test on EpiSC-derived OPCs is 7.95; in test [2] it was 8.78. The pKi in test [1] was 8.05.
Take `CC(C)n1nc(-c2cccc(C(F)(F)F)c2)cc1[C@H]1[C@@H]2C[C@H](N3CCCOCC3)C[C@@H]21` [Compound 176*, 4-((1R,3s,5S,6r)-6-(1-isopropyl-3-(3-(trifluoromethyl)phenyl)-1H-pyrazol-5-yl)bicyclo[3.1.0]hexan-3-yl)-1,4-oxazepane]: the pEC50 with EpiSC-derived OPCs (Mus musculus, 72 h) is 8.74; in test [2] (Mus musculus, 24 h), 8.77. Further, the pKi in test [1] was 8.06.
